From patent publication US5464848A, “1,2,4-oxadiazolyl-phenoxyalkylisoxazoles and their use as antiviral agents” (Sterling Winthrop Inc., priority 1993, dated 1995)
Converted amounts (≈) assume the structure as drawn.

Tested on: human rhinovirus (HRV) serotypes, panel T
Assay: MIC50/MIC80 over panel T of fifteen human rhinovirus serotypes (HeLa cell CPE)
Format: cell-based
Details: for MIC50: Human rhinovirus sp., 72 h, minimum concentration required to inhibit 50% of the tested serotypes; for MIC80: minimum concentration required to inhibit 80% of the tested serotypes
Procedure: They are useful in inhibiting virus replication in vitro and are primarily active against picornaviruses, including enteroviruses, echovirus and coxsackie virus, especially rhinoviruses. […] The test procedure used was as follows: The MIC values were determined by an automated tissue culture infectious dose 50% (TCID-50) assay. HeLa cells in monoloyers in 96-well cluster plates were infected with a dilution of virus which had been shown empirically to produce 80% to 100% cytopathic effect (CPE) in 3 days in the absence of drug. The compound to be tested was serially diluted through 10, 2-fold cycles and added to the infected cells. After a 3 day incubation at 33° C. and 2.5% carbon dioxide, the cells were fixed with a 5% solution of glutaraldehyde followed by staining with a 0.25% solution of crystal violet in water. The plates were then rinsed, dried, and the amount of stain remaining in the well (a measure of intact cells) was quantitated with an optical density reader. The MIC was determined to be the concentration of compound which protected 50% of the cells from virus-induced CPE relative to an untreated virus control.
In the above test procedures, representative compounds of formula I were tested against some the serotypes from either a panel of fifteen human rhinovirus (HRV) serotypes, (noted in the table as panel T) namely, HRV-2, -14, -1A, -1B, -6, -21, -22, -15, -25, -30, -50, -67, -89, -86 and -41 or against some of the serotypes from a panel of 10 human rhinovirus serotypes namely HRV-3, -4, -5, -9, -16, -18, -38, -66, -75 and -61, (noted in the table as panel B) and the MIC value, expressed in micrograms per milliliter ([…]), for each rhinovirus serotype was determined for each virus, example 1e is given as an example of the data. Then MIC50 and MIC80 values, which are the minimum concentrations of the compound required to inhibit 50% and 80%, respectively, of the tested serotypes were determined.
The following Table gives the test results for representative compounds of the invention. The panel of viruses used in the test appears before the MIC80 and MIC50 figure and the number of serotypes which the compound is tested against (N) is indicated after the MIC80 and MIC50 figure.

Row | Compound | MIC50 [µg/mL] | MIC80 [µg/mL]
1 | COCc1cc(CCCOc2c(C)cc(-c3noc(C(F)(F)F)n3)cc2C)on1 [Example 21, 5-{3-[2,6-Dimethyl-4-(5-trifluoromethyl-1,2,4-oxadiazol-3-yl)phenoxy]propyl}-3-(methoxymethyl) -isoxazole] | 1.56 (≈ 3.8 µM) | 0.0575 (≈ 0.14 µM)
2 | CCOCc1cc(CCCOc2c(C)cc(-c3noc(C(F)(F)F)n3)cc2C)on1 [Example 22, 5-{3-[2,6-Dimethyl-4-(5-trifluoromethyl-1,2,4-oxadiazol-3-yl)phenoxy]propyl}-3-(ethoxymethyl)-isoxazole] | 0.729 (≈ 1.71 µM) | 0.087 (≈ 0.205 µM)
3 | Cc1cc(CCCOc2c(C)cc(-c3noc(CC(F)(F)F)n3)cc2C)on1 [Example 43, 5-{3-[2,6-Dimethyl-4-(5-(2,2,2-trifluoroethyl)-1,2,4-oxadiazol-3-yl)phenoxy]propyl}-3-methylisoxazole] | 99 (≈ 250 µM) | 99 (≈ 250 µM)
4 | Cc1cc(-c2noc(C(F)(F)F)n2)cc(C)c1OCCCc1cc(CCO)no1 [Example 33, 5-{3-[2,6-Dimethyl-4-(5-trifluoromethyl-1,2,4-oxadiazol-3-yl)-phenoxy]propyl}-3-(2-hydroxyethyl)isoxazole] | 0.102 (≈ 0.248 µM) | 0.045 (≈ 0.109 µM)
5 | Cc1cc(CCCOc2c(C)cc(-c3noc(N(C)C)n3)cc2C)on1 [Example 19, 5-{3-[2,6-Dimethyl-4-(5-dimethylamino-1,2,4-oxadiazol-3-yl)-phenoxy]propyl}-3-methylisoxazole] | 0.285 (≈ 0.8 µM) | 0.085 (≈ 0.238 µM)
6 | Cc1cc(CCCOc2c(C)cc(-c3noc(CCl)n3)cc2C)on1 [Example 10, 5-{3-[4-(5-Chloromethyl-1,2,4-oxadiazol-3-yl) -2,6-dimethylphenoxy]propyl}-3-methylisoxazole] | 0.279 (≈ 0.771 µM) | 0.141 (≈ 0.39 µM)
7 | Cc1cc(CCCOc2c(C)cc(-c3noc(=N)[nH]3)cc2C)on1 [Example 15, 5-{3-[4-(5-Imino-4,5-dihydro-1,2,4-oxadiazol-3-yl)-2,6-dimethylphenoxy]propyl}-3-methylisoxazole] | 99 (≈ 301 µM) | 99 (≈ 301 µM)
8 | Cc1cc(-c2noc(C3CC3)n2)cc(C)c1OCCCc1cc(CO)no1 [Example 39c, 5-{3-[4-(5-Cyclopropyl-1,2,4-oxadiazol-3-yl)-2,6-dimethylphenoxy]propyl}-3-(hydroxymethyl) isoxazole] | 0.187 (≈ 0.506 µM) | 0.035 (≈ 0.0947 µM)
9 | Cc1cc(CCCOc2c(Cl)cc(-c3noc(C(F)(F)F)n3)cc2C#N)on1 [Example 61e, 5-{3-[4-(5-Trifluoromethyl-1,2,4-oxadiazol-3-yl)2-cyano-6-chlorophenoxy]-propyl}-3-methylisoxazole] | 0.706 (≈ 1.71 µM) | 0.3355 (≈ 0.813 µM)
10 | Cc1cc(CCCOc2c(C)cc(-c3nc(C(F)(F)F)no3)cc2C)on1 [Example 46c] | 0.197 (≈ 0.517 µM) | 0.1 (≈ 0.262 µM)
11 | Cc1cc(CCCOc2ccc(-c3noc(C(F)(F)F)n3)cc2)on1 [Example 32c, 3-Methyl-5-{3-[4-(5-trifluoromethyl-1,2,4-oxadiazol-3-yl) -phenoxy]propyl}isoxazole] | 99 (≈ 280 µM) | 2.86 (≈ 8.1 µM)
12 | CCc1cc(CCCOc2c(C)cc(-c3noc(C4CC4)n3)cc2C)on1 [Example 25, 5-{3-[4-(5-Cyclopropyl-1,2,4-oxadiazol-3-yl) -2,6-dimethylphenoxy]propyl}-3-ethylisoxazole] | 0.312 (≈ 0.849 µM) | 0.085 (≈ 0.231 µM)
13 | Cc1cc(CCCCCOc2c(C)cc(-c3noc(C(F)(F)F)n3)cc2C)on1 [Example 30c, 5-{5-[2,6-Dimethyl-4-(5-trifluoromethyl-1,2,4-oxadiazol-3-yl)-phenoxy]pentyl}-3-methylisoxazole] | 0.694 (≈ 1.7 µM) | 0.225 (≈ 0.55 µM)
14 | Cc1cc(CCCOc2c(C)cc(-c3nc(C4CC4)no3)cc2C)on1 [Example 45l, 5-{3-[2,6-Dimethyl-4,(5-cyclopropyl-1,2,4-oxadiazol-3-yl)phenoxy]propyl}-3-methylisoxazole] | 0.558 (≈ 1.58 µM) | 0.153 (≈ 0.433 µM)
15 | CCOc1nc(-c2cc(C)c(OCCCc3cc(C)no3)c(C)c2)no1 [Example 17, 5-{3-[2,6-Dimethyl-4-(5-ethoxy-1,2,4-oxadiazol-3-yl)phenoxy]propyl}-3-methylisoxazole] | 0.116 (≈ 0.325 µM) | 0.055 (≈ 0.154 µM)
16 | Cc1cc(CCCOc2c(C)cc(-c3noc(CF)n3)cc2C)on1 [Example 6, 5-{3-[2,6-Dimethyl-4-(5-fluoromethyl-1,2,4-oxadiazol-3-yl)phenoxy]propyl}-3-methylisoxazole] | 0.073 (≈ 0.211 µM) | 0.046 (≈ 0.133 µM)

Row | Compound | MIC50 [µg/mL] | MIC80 [µg/mL]
17 | CC(=O)OCc1nc(-c2cc(C)c(OCCCc3cc(C)no3)c(C)c2)no1 [Example 9, 5-{3-[2,6-Dimethyl-4-(5-methylcarbonyloxy-methyl-1,2,4-oxadiazol-3-yl)phenoxy]propyl}-3-methylisoxazole] | 0.279 (≈ 0.724 µM) | 0.141 (≈ 0.366 µM)
18 | Cc1cc(CCCOc2ccc(-c3noc(C4CCC4)n3)cc2)on1 [Example 54e, 5-{3-[4-(5-cyclobutyl-1,2,4-oxadiazol-3-yl)phenoxy]propyl}-3-methylisoxazole] | 99 (≈ 292 µM) | 0.1045 (≈ 0.308 µM)
19 | COCCc1cc(CCCOc2c(C)cc(-c3noc(C(F)(F)F)n3)cc2C)on1 [Example 29d, 5-{3-[2,6-Dimethyl-4-(5-trifluoromethyl-1,2,4-oxadiazol-3-yl)phenoxy]propyl}-3-(methoxyethyl)isoxazole] | 0.172 (≈ 0.404 µM) | 0.715 (≈ 1.68 µM)
20 | CCOC(=O)c1cc(CCCOc2c(C)cc(-c3noc(C(F)(F)F)n3)cc2C)on1 [Example 56d, 5-{3-[2,6-Dimethyl-4-(5-trifluoromethyl-1,2,4-oxadiazol-3-yl)phenoxy]propyl}-3-(ethoxycarbonyl)isoxazole] | 1.47 (≈ 3.33 µM) | 0.634 (≈ 1.44 µM)
21 | Cc1cc(-c2noc(C3CC3)n2)cc(C)c1OCCCc1cc(O)no1 [Example 36d, 5-{3-[4-(5-cyclopropyl-1,2,4-oxadiazol-3-yl)-2,6-dimethylphenoxy]propyl}-3-hydroxyisoxazole] | 1.32 (≈ 3.72 µM) | 0.371 (≈ 1.04 µM)
22 | Cc1cc(CCCOc2c(C)cc(-c3noc(C4CC4)n3)cc2C)on1 [Example 4, 5-{3-[4-(5-Cyclopropyl-1,2,4-oxadiazol-3-yl) -2,6-dimethylphenoxy]propyl}-3-methylisoxazole] | 3.15 (≈ 8.9 µM) | 0.057 (≈ 0.161 µM)
23 | Cc1cc(-c2noc(C3CC3)n2)cc(C)c1OCCCc1cc(C2CC2)no1 [Example 27] | 0.142 (≈ 0.374 µM) | 0.087 (≈ 0.229 µM)
24 | Cc1cc(CCCOc2c(C)cc(-c3noc(C(Cl)Cl)n3)cc2C)on1 [Example 13, 5-{3-[4-(5-Dichloromethyl-1,2,4-oxadiazol-3-yl)-2,6-dimethyl-phenoxy]propyl}-3-methylisoxazole] | 0.266 (≈ 0.671 µM) | 0.145 (≈ 0.366 µM)
25 | CCc1cc(CCCOc2c(C)cc(-c3noc(C(F)(F)F)n3)cc2C)on1 [Example 28c, 5-{3-[2,6-Dimethyl-4-(5-trifluoromethyl-1,2,4-oxadiazol-3-yl)phenoxy]propyl}-3-ethylisoxazole] | 0.278 (≈ 0.703 µM) | 0.119 (≈ 0.301 µM)
26 | Cc1cc(CCCOc2c(C)cc(-c3noc(C#N)n3)cc2C)on1 [Example 39, 5-{3-[4-(5-Cyano-1,2,4-oxadiazol-3-yl)-2,6-dimethylphenoxy]-propyl}-3-methylisoxazole] | 99 (≈ 293 µM) | 1.848 (≈ 5.46 µM)
27 | Cc1cc(CCCOc2c(C)cc(-c3nc(N)no3)cc2C)on1 [Example 47] | 5.14 (≈ 15.7 µM) | 0.057 (≈ 0.174 µM)
28 | Cc1cc(-c2noc(C(F)(F)F)n2)cc(C)c1OCCCc1cc(CO)no1 [Example 34d, 5-{3-[2,6-Dimethyl-4-(5-trifluoromethyl-1,2,4-oxadiazol-3-yl)phenoxy]propyl}-3-(hydroxymethyl) isoxazole] | 0.07 (≈ 0.176 µM) | 0.042 (≈ 0.106 µM)
29 | CN=c1[nH]c(-c2cc(C)c(OCCCc3cc(C)no3)c(C)c2)no1 [Example 18, 5-{3-[2,6-Dimethyl-4-(5-methylimino-4,5-dihydro-1,2,4-oxadiazol-3-yl)phenoxy]propyl}-3-methylisoxazole] | 0.325 (≈ 0.949 µM) | 0.128 (≈ 0.374 µM)
30 | CCOC(=O)c1nc(-c2cc(C)c(OCCCc3cc(C)no3)c(C)c2)no1 [Example 7, 5-{3-[2,6-Dimethyl-4-(5-ethoxycarbonyl-1,2,4-oxadiazol-3-yl)phenoxy]propyl}-3-methylisoxazole] | 99 (≈ 257 µM) | 99 (≈ 257 µM)
31 | COCc1cc(CCCOc2c(C)cc(-c3noc(C4CC4)n3)cc2C)on1 [Example 26] | 0.183 (≈ 0.477 µM) | 0.038 (≈ 0.0991 µM)
32 | Cc1cc(CCCOc2c(C)cc(-c3noc(C(F)F)n3)cc2C)on1 [Example 14, 5-{3-[4-(5-Difluoromethyl-1,2,4-oxadiazol-3-yl)-2,6-dimethyl-phenoxy]propyl}-3-methylisoxazole] | 0.054 (≈ 0.149 µM) | 0.022 (≈ 0.0605 µM)
